The values below come from patent publication US20090092553A1, “MONOCARBOXYLATE TRANSPORTERS EXPRESSED IN CANCER CELLS” (Xenoport,Inc., priority 2003, published 2009).

The target of assay [1] is T1, MCT1 (Homo sapiens, UniProt P53985).
T1 sequence (P53985 1-500): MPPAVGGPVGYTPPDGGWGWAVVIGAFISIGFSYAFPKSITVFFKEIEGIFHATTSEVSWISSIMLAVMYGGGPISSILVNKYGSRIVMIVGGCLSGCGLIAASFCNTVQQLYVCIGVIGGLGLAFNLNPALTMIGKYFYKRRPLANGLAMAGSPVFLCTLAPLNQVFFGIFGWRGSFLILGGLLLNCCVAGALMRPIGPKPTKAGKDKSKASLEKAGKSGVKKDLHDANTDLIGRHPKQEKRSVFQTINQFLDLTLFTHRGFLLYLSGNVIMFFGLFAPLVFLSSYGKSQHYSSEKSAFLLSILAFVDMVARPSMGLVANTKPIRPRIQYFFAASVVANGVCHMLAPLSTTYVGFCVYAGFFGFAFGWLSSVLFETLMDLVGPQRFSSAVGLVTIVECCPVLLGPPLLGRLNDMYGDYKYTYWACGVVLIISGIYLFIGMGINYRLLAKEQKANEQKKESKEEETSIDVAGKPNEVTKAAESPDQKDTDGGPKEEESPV
Nature of the assay: HEK cell intracellular pH (BCECF) / phloretin inhibition assay. Type of assay: cell-based. Conditions: HEK cells; for effect on the intracellular pH response to lactate: applied together with lactate. The text has this: Because MCT1 transports both the carboxylate anion and the corresponding proton, a pH measuring assay was developed to measure net transport of protons into the cytoplasm. Intracellular pH can be measured by a pH-sensitive fluorescent dye such as BCECF. […] In the phloretin inhibition assay, the HEK cells are first exposed to a plurality of solutions containing various concentrations of the test compound (in FIG. 3, the model test compound is lactate) and then to the same solutions to which have been added a set (0.25 mM) concentration of phloretin. Thus, FIG. 3 is a graph of lactate concentration ([L]) versus the percent of maximum pH change found with administration of the highest concentration of the test compound (lactate) alone. […] This is because MCT1 co-transports lactate and a proton into the HEK cells, causing their internal pH to decrease. This pH lowering effect is shown by the characteristic reverse-S-shaped dose response upper curve in FIG. 3. When the cells are exposed to the solutions containing both lactate and phloretin, the phloretin inhibits the lactate uptake by MCT1 and there is little pH change in the cells, as shown by the relatively flat lower curve in FIG. 3. The phloretin inhibition assay can also be used to determine those carboxylic acids that are actively transported MCT substrates from those that are only passively absorbed across the cell membrane. In the latter case, when a passive absorbed acid is applied to HEK cells, there is an intracellular acidification, which occurs both with and without phloretin.
FIG. 4 is a graph of 2-TPGA concentration ([2-TPGA]) versus the relative percent decrease in intracellular pH compared to a standard decrease in intracellular pH caused by exposure of the cells to 20 mM lactate solution. When 0.25 mM phloretin was applied to these cells in addition to 2-TPGA, MCT1 transport was blocked and no significant pH change was detected.
FIG. 5 is a graph of sulfasalazine concentration ([sulfasalazine]) versus the relative percent decrease in intracellular pH compared to a standard decrease in intracellular pH caused by exposure of the cells to 20 mM lactate solution.

For assay [2], the target named is T2, MCT1 (Homo sapiens, UniProt P53985, D490E).
T2 sequence (P53985 1-500 D490E): T1 sequence (P53985 1-500) with D490E
The experiment in a line: Xenopus oocyte ROMK electrophysiological pH assay, MCT1. Type of assay: cell-based.

Assay [3] addresses T3, MCT4 (Homo sapiens, UniProt O15427).
T3 sequence (O15427 1-465): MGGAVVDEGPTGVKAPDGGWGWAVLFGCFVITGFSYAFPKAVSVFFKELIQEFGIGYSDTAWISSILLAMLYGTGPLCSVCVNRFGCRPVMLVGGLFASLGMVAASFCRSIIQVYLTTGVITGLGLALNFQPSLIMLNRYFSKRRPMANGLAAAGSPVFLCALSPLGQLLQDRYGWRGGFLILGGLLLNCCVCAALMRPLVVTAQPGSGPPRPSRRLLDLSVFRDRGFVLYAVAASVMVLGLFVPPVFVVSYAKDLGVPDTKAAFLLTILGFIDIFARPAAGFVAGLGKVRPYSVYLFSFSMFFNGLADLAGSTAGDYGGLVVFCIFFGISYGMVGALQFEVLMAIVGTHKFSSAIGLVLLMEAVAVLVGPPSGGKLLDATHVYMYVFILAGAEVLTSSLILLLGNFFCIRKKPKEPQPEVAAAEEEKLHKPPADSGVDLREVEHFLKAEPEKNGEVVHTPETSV
Nature of the assay: Xenopus oocyte ROMK electrophysiological pH assay, MCT4. Type of assay: cell-based. Also on record: The complete open reading frame was cloned into a Xenopus oocyte expression plasmid; expressed in transfected cells; host or cells: Xenopus oocytes injected with cRNA.

In assay [4] the target is T1, MCT1. Conditions: cited from earlier work.
Assay [5] concerns the target T3, MCT4. The conditions noted are these: cited from earlier work.

Positions count from the first letter of the chain named.

On to `O=C(CCc1ccc(O)cc1)c1c(O)cc(O)cc1O` [phloretin], for which, on MCT1 [1], the “intracellular pH change when applied alone” value is on record as “does not cause an intracellular pH change”. Also, the “effect on the intracellular pH response to lactate” value at MCT1 [1] is given as “completely blocks the lactate response”. Besides, the “effect of co-application with lactate on the potassium current” value on MCT1 [2] (oocytes co-expressing ROMK and MCT1, 350 μM phloretin and 10 mM lactate) is listed as “completely blocks the effect of lactate on the potassium current”; on MCT4 [3] (oocytes co-expressing ROMK and MCT4, 350 μM phloretin and 10 mM lactate), “completely blocks the effect of lactate on the potassium current”.

`O=C(O)C(=O)c1cccs1` [Compound 2-TPGA, 2-thiophene glyoxylic acid]: the “substrate status from intracellular pH change with and without 0.25 mM phloretin” value on MCT1 [1] (FIG. 4) was “substrate for, and is actively transported by, MCT1”.

`CC(O)C(=O)O` (centres unmarked) [lactate]: the “intracellular pH change when applied alone” value at MCT1 [1] is “dose-dependent intracellular acidification”. In addition, the “effect on ROMK potassium current” value on MCT1 [2] (oocytes co-expressing ROMK and MCT1, 10 mM lactate solution) is on record as “strong inhibition of the potassium current”; on MCT4 [3] (oocytes co-expressing ROMK and MCT4, 10 mM lactate solution), “strong inhibition of the potassium current”. The affinity for lactate at MCT1 [4] is roughly 2 mM; on MCT4 [5], roughly 40 mM.

Consider `O=C(O)c1cc(/N=N/c2ccc(S(=O)(=O)Nc3ccccn3)cc2)ccc1O` [sulfasalazine], for which the “effect on the intracellular pH response to lactate” value on MCT1 [1] is reported as “inhibitor of MCT1”.
